Source: PubChem BioAssay AID2305 (GlaxoSmithKline (GSK), 2010)
“And” between values parts separate entries of the source, which are not always exact repeats. Identical values can stand only once.

system: P. falciparum 3D7 growth, pLDH absorbance; assay: blood-stage malaria parasite growth potency – strain 3D7, dose response (AID 2305)

| SMILES | IC50 |
| --- | --- |
| NC(=O)c1sc(-n2cnc3ccccc32)cc1OCc1ccccc1[N+](=O)[O-] | 700 nM |
| CCCc1c(C(=O)NC2CCC(CN3CCC(c4c[nH]c5ccccc45)CC3)CC2)cnn1-c1ccc(Cl)cc1 (stereo not drawn) | 760 nM |
| NC(=NCc1ccccc1Cl)NCCc1c[nH]c2ccccc12 | 110 nM |
| Cc1csc(-c2nc(NCc3cccnc3)ncc2-c2ccsc2)n1 | 1190 nM |
| COc1cc2nc(N3CCN(c4cc(C)ccc4C)CC3)nc(N)c2cc1OC | 850 nM |
| O=C(Nc1ccsc1)Nc1cccc(-c2cccc(-c3nc4ccccc4[nH]3)c2)c1 | 120 nM |
| CC(=O)C1(c2ccccc2)CCN(CCC2(c3ccc(Cl)c(Cl)c3)CN(C(=O)CC(C)C)CCO2)CC1 (stereo not drawn) | 640 nM |
| O=[N+]([O-])c1ccc2nc(Nc3cccc(C(F)(F)F)c3)c(Nc3cccc(C(F)(F)F)c3)nc2c1 | 480 nM |
| Cc1ccc(NC(=O)c2ccc3ncccc3c2)cc1OC1CCN(Cc2ccsc2)CC1 | 930 nM |
| Cc1cc2nc(-c3ccc(OCC(=O)NCc4cccc(C(F)(F)F)c4)cc3)[nH]c2cc1C | 990 nM |
| CCNc1cc(C(=O)N[C@@H](Cc2ccccc2)[C@H](O)CNCCc2cccc(C(F)(F)F)c2)cc(N2CCCC2=O)c1 | 880 nM |
| COc1ccc(CNC2CCN(C)CC2)cc1-c1ccc(S(=O)(=O)NCc2ccccc2)s1 | 230 nM |
| O=C(Cc1n[nH]c(=O)c2ccccc12)Nc1cccc(C(=O)Nc2cccc(C(F)(F)F)c2)c1 | 170 nM |
| C=C[C@H]1CN2CC[C@H]1C[C@H]2[C@H](O)c1ccnc2ccc(OC)cc12 | 100 nM and 430 nM and 150 nM |
| Cc1cc(C(=O)Nc2ccc3c(c2)CCN3C2CCN(Cc3cccc(F)c3F)C2)no1 (stereo not drawn) | 580 nM |
| Cc1cc(N(CCN2CCCCC2)CCN2CCCCC2)nc(Nc2ccc(Cl)cc2)n1 | 270 nM |
| CN1CCN(Cc2cccc(-c3ccc4c(Nc5ccc(F)cc5Cl)ccnc4c3)c2)CC1 | 160 nM |
| COc1ccc(NC(=O)NC2CCN(CCCCCNC(=O)/C=C/c3ccc(Cl)c(Cl)c3)CC2)cc1 | 1010 nM |
| O=C(NC1CCN(CCc2c[nH]c3ccc(F)cc23)CC1)c1ncc(-c2ccccc2)[nH]1 | 870 nM |
| COc1ccc(CNCCCCCNCc2ccc(Cl)c(Cl)c2)cc1Cl | 750 nM |
| CCN(CC)CC(O)Cc1c2ccc([N+](=O)[O-])cc2nc2cc(OC)c(OC)cc12 (stereo not drawn) | 740 nM |
| FC(F)(F)c1ccc(NC(=S)N2CCC(CCN3CCC(c4c[nH]c5ccccc45)CC3)CC2)cc1 | 890 nM |
| COc1cc(C(=O)NC2CC(C)(C)N(C)C(C)(C)C2)ccc1-c1cc2cc(Cl)c(Cl)cc2[nH]1 | 1140 nM |
| Cc1cccc2[nH]c(-c3ccc(-c4cccc(CN5CCCCC5)c4)s3)nc12 | 470 nM |
| Cc1cc(NC(=O)[C@H](CC(C)C)Nc2ccc(C#N)c3ccccc23)ccc1F | 780 nM |

| SMILES | IC50 |
| --- | --- |
| O=C(Nc1cccc(-c2cc(-c3c(Cl)cccc3Cl)no2)c1)c1cnc2ccccc2c1 | 1100 nM |
| CC(Cc1ccc(NC(=O)c2ccc(CC(C)NCc3ccc(Cl)c(Cl)c3)cc2)cc1)NCCc1cccc(Cl)c1 (stereo not drawn) | 1000 nM |
| O=C(NCCCCN1CCN(CC=Cc2ccccc2)CC1)c1ccc(NC(=O)c2cc(Cl)cc(Cl)c2)cc1 | 210 nM |
| CCN1CCN(c2ccc(Nc3ccnc4ccc(Br)cc34)cc2)CC1 | 300 nM |
| COc1cc(NC(=O)c2ccc3oc4ccccc4c3c2)ccc1OCCN1CCCCC1 | 920 nM |
| Cc1csc(-c2nc(NCCc3c(C)noc3C)ncc2-c2ccsc2)n1 | 180 nM |
| CCOC(=O)c1c(NC(NC(=O)c2ccc(C(C)(C)C)cc2)C(Cl)(Cl)Cl)sc2c1CCCC2 (stereo not drawn) | 810 nM |
| CC(CCc1ccccc1)NCC(O)c1cccc([N+](=O)[O-])c1 (stereo not drawn) | 860 nM |
| NC1=Nc2ccc(Cl)cc2C1(O)c1ccccc1 (stereo not drawn) | 880 nM |
| COc1cccc(NC(=O)[C@H](C(C)C)n2c(=O)[nH]c3ccccc3c2=O)c1 | 270 nM |
| COc1cc2nc(N(C)C)nc(Nc3ccc(OCc4ccccc4)cc3)c2cc1OC | 70 nM |
| Cc1cc(=O)c(-c2ccc(Oc3ccc(Cl)cc3Cl)cc2)c(C)[nH]1 | 840 nM |
| C=C[C@@H]1CN2CC[C@H]1C[C@H]2[C@H](O)c1cc(-c2ccc(Cl)cc2)nc2ccc(OC)cc12 | 30 nM |
| COc1ccc(C2CCC(NCCCCNC(=O)c3ccc(NC(=O)c4ccc(Cl)cc4)cc3)CC2)cc1 (stereo not drawn) | 630 nM |
| CCC(NC[C@@H](O)[C@H](Cc1ccccc1)NC(=O)c1cc(C2CCCC2)cc(N2CCCC2=O)c1)c1cccc(Cl)c1 (stereo partly drawn) | 40 nM |
| c1cc(CNCC2CCCO2)cc(-c2ccc(-c3nc4ccccc4[nH]3)s2)c1 (stereo not drawn) | 1170 nM |
| COc1ccc(CCNC(=O)c2ccccc2O)cc1-c1ccc(C(C)(C)C)cc1 | 560 nM |
| N=C(N)CCN(Cc1ccccc1)c1ccc(Cl)cc1 | 260 nM |
| C[C@H](NC(=O)c1cc(-c2ccc(C(C)(C)C)cc2)no1)C(=O)O (tested in a mixture with another compound) | 140 nM |
| Cc1cccc2[nH]c(-c3ccc(-c4ccc(CN5CCCCC5)cc4)s3)nc12 | 520 nM |
| O=C(NCc1cccc(F)c1)Nc1ccc(-c2ccc(-c3nc4ccc(C(F)(F)F)cc4[nH]3)cc2)cc1 | 770 nM |
| CC1(C)N=C(N)N=C(N)N1c1cccc(C(F)(F)F)c1 | 10 nM |
| Cc1ccc(S(=O)(=O)Nc2ccc(Nc3nccc(Nc4cccc5[nH]ncc45)n3)cc2)cc1 | 960 nM |
| O=C(Nc1cccc(CN2CCN(Cc3ccc(O)cc3)CC2)c1)c1ccc(Cl)c(Cl)c1 | 250 nM |
| Oc1ccc(CCNc2nc(N/N=C/C=C/c3ccc(Cl)cc3)nc(N3CCNCC3)n2)cc1 | 780 nM |

| SMILES | IC50 |
| --- | --- |
| CC(=O)N1Cc2ccccc2C1=O | 520 nM |
| CC(=NNC(=S)Nc1ccccc1Cl)c1ccccn1 | 80 nM |
| CCNc1cc(C)nc(Nc2ccc(F)cc2)n1 | 800 nM |
| CCCCCCCCNc1c2ccc(Cl)cc2nc2ccc(OC)cc12 | 810 nM |
| COc1ccc(S(=O)(=O)NC2CCN(c3ccnc4cc(Cl)ccc34)C2)cc1 (stereo not drawn) | 490 nM |
| Cc1ccc([N+](=O)[O-])cc1NC(=O)N(CC(O)c1ccccc1)C1CCCCC1 (stereo not drawn) | 730 nM |
| O=C(Nc1cccc(-c2nn3ncccc3c2-c2ccnc(Nc3cccc(C(F)(F)F)c3)n2)c1)c1c(F)cccc1F | 650 nM |
| O=C(NC1CCN(Cc2ccccc2)CC1)c1ccc(CNC2CCN(Cc3ccccc3)CC2)cc1 | 870 nM |
| Cc1ccccc1CNc1noc(-c2c(-c3ccccc3)noc2C)n1 | 900 nM |
| O=C(Nc1ccc2oc(-c3ccc(Br)cc3)nc2c1)c1ccc([N+](=O)[O-])o1 | 970 nM |
| COc1cccc(-c2csc(C(=O)NCC3CCN(Cc4ccc(C(C)C)cc4)C3)c2)c1 (stereo not drawn) | 1390 nM |
| COc1ccc2nccc([C@@H](O)CN3CCC(NC(=O)/C=C/c4cccc(-c5ccccc5)c4)CC3)c2c1 | 250 nM |
| Fc1ccc2c(NN=Cc3ccc(Cl)cc3)ccnc2c1 | 750 nM |
| COc1cc(NC(=O)/C=C/c2cccc3ccoc23)ccc1OCCN(C(C)C)C(C)C | 1040 nM |
| Cc1cc(NC(=O)c2ccc(-c3ccccc3)cc2)no1 | 1020 nM |
| Cc1cc(N2CCCN(C)CC2)nc(Nc2ccc(Br)cc2)n1 | 720 nM |
| CC1CN(Cc2ccc(-c3ccc(-c4nc5ccccc5[nH]4)cc3)cc2)CC(C)O1 (stereo not drawn) | 520 nM |
| CN1CCN(c2cc(-c3cccc(C(F)(F)F)c3)nc(-c3ccncc3)n2)CC1 | 730 nM |
| O=S(=O)(Nc1cc2c(cc1O)CCN(C1CCC1)CC2)c1ccc(Oc2ccc(F)cc2)cc1 | 780 nM |
| O=S(=O)(Nc1ccc(CCN2CCC(N3CCCCC3)CC2)cc1)c1cccc(C(F)(F)F)c1 | 700 nM |
| CCOC(=O)c1ccc(NC(=O)Nc2cccc(-c3ccc(-c4nc5ccc(F)cc5[nH]4)cc3)c2)cc1 | 90 nM |
| CC1(C)CCC(C)(C)c2c1ccc(C1CCN(CCCCNC(=O)c3ccc(-c4ccc(C#N)cc4)cc3)CC1)c2O | 230 nM |
| Cc1[nH]c(C)c(-c2ccc(Sc3ccc(Cl)cc3)cc2)c(=O)c1Br | 140 nM |
| N=C(N)c1ccc(C=Cc2ccc(C(=N)N)cc2O)cc1 | 100 nM |
| O=P(O)(O)Oc1c(Br)cc(Br)cc1-c1cc(Br)cc(Br)c1O | 170 nM |

| SMILES | IC50 |
| --- | --- |
| Cc1ccc(/C=C/C(=O)NCCCCCN2CCC(c3c[nH]c4ccccc34)CC2)cc1 | 1010 nM |
| Cc1ccc(NC(=O)c2ccc3ncccc3c2)cc1OC1CCN(Cc2ccsc2)C1 (stereo not drawn) | 800 nM |
| CO/C(=C\C=C\c1cc2cc(Cl)c(Cl)cc2[nH]1)C(=O)NCCCN1CC(C)N(C)CC1C (stereo not drawn) | 1130 nM |
| CC[C@H]1CN2CC[C@H]1C[C@H]2[C@H](O)c1cc(-c2ccccc2C(F)(F)F)nc2ccc(OC)cc12 | 230 nM |
| CCN(CC)CCCN(CCCN(CC)CC)c1cc(C)nc(Nc2ccc(Br)cc2)n1 | 200 nM |
| O=C(Nc1ccc2c(c1)CCN(C1CCC1)CC2)c1cn(-c2ccccc2)nc1-c1ccccc1 | 810 nM |
| COc1ccc(-c2cccc(CNCc3ccc(F)cc3)c2)cc1S(=O)(=O)NCCN1CCCC1 | 1850 nM |
| CCNc1cc(C(=O)N[C@@H](Cc2ccccc2)[C@H](O)CNCc2cccc(-n3ccnc3)c2)cc(N2CCCC2=O)c1 | 630 nM |
| Cc1cc(C2NC(=O)c3ccccc3N2)c(C)n1-c1ccc2c(c1)OCO2 (stereo not drawn) | 730 nM |
| COc1ccc2ncn(-c3ccc(C(N)=O)c(OCc4ccccc4C(F)(F)F)c3)c2c1 | 540 nM |
| O=C(Nc1cccc(CN2CCCN(Cc3ccc(O)cc3)CC2)c1)c1ccc(Cl)c(Cl)c1 | 260 nM |
| Cc1cc(C(=O)Nc2nc(-c3ccccn3)nc3ccsc23)no1 | 810 nM |
| Cc1ccc(Cn2cnc3cc(C(=O)Nc4ccc(-c5ccc(CN(C)C)cc5)cc4)ccc3c2=O)o1 | 1260 nM |
| C=CCOC(=O)O[C@@H]1[C@@H](OC(=O)OCC=C)[C@@H](OC)O[C@H](COC(c2ccccc2)(c2ccccc2)c2ccccc2)[C@H]1OC(=O)OCC=C | 890 nM |
| O=C(NC1CCN(CCN2CCc3ccccc3CC2)CC1)c1ccc(-c2ccc(C(F)(F)F)cc2)cc1 | 930 nM |
| NC(=O)CN1CC=C(c2c[nH]c3ccc(Br)cc23)CC1 | 1100 nM |
| CCN(CC)CCCC(C)Nc1c2ccccc2nc2c1ccc1ccccc12 (stereo not drawn) | 1090 nM |
| C#CCN1CCC2=C(C1)c1c(O)cc(C(C)CCCc3ccc(F)cc3)cc1OC2(C)C (stereo not drawn) | 730 nM |
| COCCNCc1cccc(-c2cccc(CN(C(=O)Nc3ccccc3)C3CCN(Cc4ccccc4)CC3)c2)c1 | 130 nM |
| NS(=O)(=O)c1ccc(CNC(=O)c2cnc3c(O)cccc3c2Nc2cccc(NC(=O)c3ccc(Cl)c(Cl)c3)c2)cc1 | 1720 nM |
| Cc1cccc2[nH]c(-c3ccc(-c4ccc(CN5CCC(C(N)=O)CC5)cc4)s3)nc12 | 910 nM |
| Cc1cccc(C)c1NC1=NC(=S)N(c2cccc(Cl)c2)C12CCC(C(C)(C)C)CC2 (stereo not drawn) | 760 nM |
| CC(=O)Nc1ccc(OCCN(CC(F)(F)F)c2ccc(C#N)cc2C(F)(F)F)cc1 | 770 nM |
